Source: US11767353B2, “Trail compositions with reduced immunogenicity” (Theraly Fibrosis, Inc., priority 2020, dated 2023)

Tested on: COLO 205 cells
Experiment: Cell viability bioassay (CELL TITER-GLO) on COLO 205 cells
Format: cell-based, Human
Conditions: colorectal cancer cells COLO-205; read-out: potency in cell viability bioassay
Source text: TLY012 is a PEGylated form of rhTRAIL, genetically fused to a humanized coiled-coil isoleucine “zipper” (miLZ) at the N-terminus. It is a DR4/DR5 receptor agonist and as such is known to induce apoptosis in Human colon adenocarcinoma cells COLO 205 resulting in inhibition of cell proliferation. CELL TITER-GLO™ (Promega, WI) was used to measure luminescence in conventional luciferase assay system. This assay is a homogeneous method to determine the number of metabolically active cells based on quantitation of the ATP present. […]
Assay Procedure. […] The 96-well plates were placed into a 37±1.0° C.; 5±0.5% CO2; ≥85% relative humidity cell culture incubator in a single layer and incubated for 1±0.5 hours until cells are ready. […] As a result, inhibition of cell proliferation is measured by adding the CELL TITER-GLO™ solution to the cells, the lysed cells release ATP. […]
The growth medium was RPMI1640 with 10% FBS, glutamine, penicillin/streptomycin solution. […] Cell suspension was transferred to the white 96-well plates and luminescence was measured by BIOTEK plate reader.
Data were analyzed using BioTek Gen5secure software. The dose response curves were generated using the four-parameter fit logistic model and the IC50 values for reference standard and test samples were calculated. Potency of the test sample is expressed as the ratio of the IC50 values of the test and reference standard samples. […]

## TLY012: PEGylated (5 kDa PEG-aldehyde) recombinant human TRAIL (114-281) fused to modified isoleucine zipper (miLZ) at N-terminus; SEQ ID NO:30 trimer
  IC50: 0.0155 nM
